The source made the active and inactive calls.
What was measured:
[1] = target: T1, Tyrosine-protein phosphatase non-receptor type 22 (Homo sapiens, UniProt Q9Y2R2); test: PubChem AID 2135
T1 sequence (Q9Y2R2 whole entry): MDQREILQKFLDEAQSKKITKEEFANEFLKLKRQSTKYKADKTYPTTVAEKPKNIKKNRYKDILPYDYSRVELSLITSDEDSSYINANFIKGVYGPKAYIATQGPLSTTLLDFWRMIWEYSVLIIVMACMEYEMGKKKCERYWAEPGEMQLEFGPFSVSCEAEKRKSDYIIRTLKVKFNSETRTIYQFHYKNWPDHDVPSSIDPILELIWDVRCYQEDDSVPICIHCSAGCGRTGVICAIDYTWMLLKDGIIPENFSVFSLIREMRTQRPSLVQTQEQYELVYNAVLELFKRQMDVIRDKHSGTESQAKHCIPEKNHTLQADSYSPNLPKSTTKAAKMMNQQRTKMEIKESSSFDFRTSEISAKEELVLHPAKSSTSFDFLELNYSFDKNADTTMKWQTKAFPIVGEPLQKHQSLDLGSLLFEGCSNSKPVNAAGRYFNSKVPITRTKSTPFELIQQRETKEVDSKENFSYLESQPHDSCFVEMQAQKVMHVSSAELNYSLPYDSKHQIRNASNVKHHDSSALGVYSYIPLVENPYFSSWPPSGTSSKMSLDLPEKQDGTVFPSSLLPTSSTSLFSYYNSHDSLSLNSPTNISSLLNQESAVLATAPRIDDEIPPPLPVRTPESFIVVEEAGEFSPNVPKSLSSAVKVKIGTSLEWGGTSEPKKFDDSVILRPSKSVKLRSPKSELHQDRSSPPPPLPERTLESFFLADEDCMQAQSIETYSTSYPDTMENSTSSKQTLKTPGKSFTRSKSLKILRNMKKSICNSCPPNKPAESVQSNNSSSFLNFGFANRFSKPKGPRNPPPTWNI

[2] = target: T1, Tyrosine-protein phosphatase non-receptor type 22; test: SAR LYP1 Fluorescent Assay using OMFP substrate for In Vitro dose response studies - Set 2. [Related pubchem assays (depositor defined):AID1779, AID1784, AID2140, AID449726, AID488869]; type: functional
[3] = target: T1, Tyrosine-protein phosphatase non-receptor type 22; test: SAR LYP1 Fluorescent Assay using OMFP substrate for In Vitro dose response studies - Set 3. [Related pubchem assays (depositor defined):AID1779, AID1784, AID2140, AID2686]; type: functional
[4] = target: T1, Tyrosine-protein phosphatase non-receptor type 22; test: inhibition of lymphoid tyrosine phosphatase LYP – biochemical, pCAP fluorogenic substrate, fluorescence, set 3, SAR follow-up (AID 449727); type: functional
[5] = target: T2, Tyrosine-protein phosphatase non-receptor type 7 (Homo sapiens, UniProt P35236); test: inhibition of hematopoietic tyrosine phosphatase HePTP – biochemical, set 2, SAR follow-up (AID 449736); type: functional
T2 sequence (P35236 whole entry): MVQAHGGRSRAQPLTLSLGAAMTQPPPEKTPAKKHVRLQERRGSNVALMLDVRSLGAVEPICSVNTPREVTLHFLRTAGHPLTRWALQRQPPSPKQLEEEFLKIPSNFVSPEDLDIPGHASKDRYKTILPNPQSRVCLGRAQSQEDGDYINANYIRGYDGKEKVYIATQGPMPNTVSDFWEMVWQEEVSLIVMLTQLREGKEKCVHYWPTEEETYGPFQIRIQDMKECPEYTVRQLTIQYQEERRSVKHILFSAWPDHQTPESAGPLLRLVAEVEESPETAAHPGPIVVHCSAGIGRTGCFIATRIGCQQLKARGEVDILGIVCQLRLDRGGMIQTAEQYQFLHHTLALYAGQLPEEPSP

[6] = target: Tyrosine-protein phosphatase non-receptor type 12 (Homo sapiens, UniProt Q05209); test: SAR Selectivity Analysis of small molecule inhibitors of PEST using pCAP in a fluorescence assay. [Related pubchem assays (depositor defined):AID1779, AID1784, AID2135]; type: functional
Chain of Tyrosine-protein phosphatase non-receptor type 12 (Q05209 whole entry): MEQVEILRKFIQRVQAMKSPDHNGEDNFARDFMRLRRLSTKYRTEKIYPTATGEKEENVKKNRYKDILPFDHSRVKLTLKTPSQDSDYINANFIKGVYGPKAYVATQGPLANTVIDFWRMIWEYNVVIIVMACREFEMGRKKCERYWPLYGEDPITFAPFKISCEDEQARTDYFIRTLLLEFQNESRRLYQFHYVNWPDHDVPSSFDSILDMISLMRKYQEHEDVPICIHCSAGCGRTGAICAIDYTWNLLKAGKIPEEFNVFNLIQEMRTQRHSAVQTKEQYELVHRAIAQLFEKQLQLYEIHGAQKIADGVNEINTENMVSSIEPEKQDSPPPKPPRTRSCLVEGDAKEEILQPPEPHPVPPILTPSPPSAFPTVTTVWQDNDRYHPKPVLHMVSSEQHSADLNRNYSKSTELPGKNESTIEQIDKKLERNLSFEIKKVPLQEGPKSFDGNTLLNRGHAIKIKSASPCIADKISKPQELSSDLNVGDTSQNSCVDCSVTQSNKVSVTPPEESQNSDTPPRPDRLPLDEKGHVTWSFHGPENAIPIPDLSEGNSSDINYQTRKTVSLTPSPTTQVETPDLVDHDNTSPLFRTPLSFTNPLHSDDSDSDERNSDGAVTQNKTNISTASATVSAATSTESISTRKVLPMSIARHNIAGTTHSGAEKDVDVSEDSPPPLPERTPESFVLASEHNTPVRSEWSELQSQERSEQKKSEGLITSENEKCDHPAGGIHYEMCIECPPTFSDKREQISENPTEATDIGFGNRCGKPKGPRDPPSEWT

[7] = target: T1, Tyrosine-protein phosphatase non-receptor type 22; test: SAR LYP1 Fluorescent Assay using pCAP substrate for In Vitro dose response studies - Set 2. [Related pubchem assays (depositor defined):AID1779, AID1784, AID2135, AID449727]; type: functional
[8] = target: T1, Tyrosine-protein phosphatase non-receptor type 22; test: PubChem AID 2140
[9] = target: T3, Microphthalmia-associated transcription factor (Homo sapiens, UniProt O75030); test: reducers of TRPM1 reporter luminescence, concentration series – cell-based, SK-MEL-5, cherry-picked, set 3, MITF inhibitor project, dose response (AID 493073); type: functional;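 note: SK-MEL-5 melanoma cells with luciferase driven by the MITF target TRPM1 promoter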
T3 sequence (O75030 whole entry): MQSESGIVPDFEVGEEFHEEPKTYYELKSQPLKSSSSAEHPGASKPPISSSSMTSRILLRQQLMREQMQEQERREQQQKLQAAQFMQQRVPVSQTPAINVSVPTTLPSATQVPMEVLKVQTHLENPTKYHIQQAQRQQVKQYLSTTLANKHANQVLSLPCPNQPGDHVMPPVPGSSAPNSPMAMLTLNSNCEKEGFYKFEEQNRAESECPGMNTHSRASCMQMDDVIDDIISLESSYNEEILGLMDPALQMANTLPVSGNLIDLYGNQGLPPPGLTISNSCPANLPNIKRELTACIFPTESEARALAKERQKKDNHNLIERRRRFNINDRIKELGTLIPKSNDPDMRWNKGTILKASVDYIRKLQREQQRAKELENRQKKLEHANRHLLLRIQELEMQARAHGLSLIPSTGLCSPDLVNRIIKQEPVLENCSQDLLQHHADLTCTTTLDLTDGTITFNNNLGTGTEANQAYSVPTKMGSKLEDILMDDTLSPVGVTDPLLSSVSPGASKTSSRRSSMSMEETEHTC

[10] = target: T4, Replicative DNA helicase DnaB (Mycobacterium tuberculosis, UniProt P9WMR3); test: DnaB intein splicing inhibitors, dose response, biochemical, cell-free fluorescence (AID 449749); type: functional
T4 sequence (P9WMR3 whole entry): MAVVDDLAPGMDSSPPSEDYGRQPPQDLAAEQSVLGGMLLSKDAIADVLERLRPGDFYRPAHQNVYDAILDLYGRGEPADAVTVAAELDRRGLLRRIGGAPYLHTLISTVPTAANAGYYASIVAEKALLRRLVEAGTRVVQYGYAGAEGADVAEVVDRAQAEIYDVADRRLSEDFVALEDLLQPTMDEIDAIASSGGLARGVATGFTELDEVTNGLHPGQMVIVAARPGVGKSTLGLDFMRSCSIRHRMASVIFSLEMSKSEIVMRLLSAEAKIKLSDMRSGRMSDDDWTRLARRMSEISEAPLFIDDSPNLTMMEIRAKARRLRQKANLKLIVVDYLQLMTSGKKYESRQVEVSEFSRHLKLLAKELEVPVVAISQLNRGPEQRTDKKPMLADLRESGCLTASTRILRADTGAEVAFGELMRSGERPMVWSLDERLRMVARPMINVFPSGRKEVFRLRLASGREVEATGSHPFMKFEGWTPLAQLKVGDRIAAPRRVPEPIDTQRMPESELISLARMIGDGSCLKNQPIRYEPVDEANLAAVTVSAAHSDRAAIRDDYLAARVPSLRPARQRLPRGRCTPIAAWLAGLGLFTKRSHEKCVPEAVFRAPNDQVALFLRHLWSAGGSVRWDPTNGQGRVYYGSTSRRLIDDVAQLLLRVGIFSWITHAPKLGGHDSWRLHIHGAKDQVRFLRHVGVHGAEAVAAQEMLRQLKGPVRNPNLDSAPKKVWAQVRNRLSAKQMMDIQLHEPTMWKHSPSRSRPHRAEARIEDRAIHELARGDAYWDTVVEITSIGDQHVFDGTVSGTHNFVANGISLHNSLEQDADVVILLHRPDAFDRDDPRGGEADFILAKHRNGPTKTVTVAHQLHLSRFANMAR

cells = type: functional
[11] = Vero E6 cell cytotoxicity, dose response, cytotoxicity control for non-replicating M. tuberculosis project, secondary assay (AID 492998); type: functional, VeroE6; details: Vero C1008
Protein RecA [12] = target: T5, Protein RecA (Mycobacterium tuberculosis, UniProt P9WHJ3); test: Fluorescence Cell-Free Homogeneous Dose Retest to Identify Inhibitors of RecA-Intein Splicing Activity. [Related pubchem assays (depositor defined):AID2097, AID2223, AID489010, AID492950]; type: functional
T5 sequence (P9WHJ3 whole entry): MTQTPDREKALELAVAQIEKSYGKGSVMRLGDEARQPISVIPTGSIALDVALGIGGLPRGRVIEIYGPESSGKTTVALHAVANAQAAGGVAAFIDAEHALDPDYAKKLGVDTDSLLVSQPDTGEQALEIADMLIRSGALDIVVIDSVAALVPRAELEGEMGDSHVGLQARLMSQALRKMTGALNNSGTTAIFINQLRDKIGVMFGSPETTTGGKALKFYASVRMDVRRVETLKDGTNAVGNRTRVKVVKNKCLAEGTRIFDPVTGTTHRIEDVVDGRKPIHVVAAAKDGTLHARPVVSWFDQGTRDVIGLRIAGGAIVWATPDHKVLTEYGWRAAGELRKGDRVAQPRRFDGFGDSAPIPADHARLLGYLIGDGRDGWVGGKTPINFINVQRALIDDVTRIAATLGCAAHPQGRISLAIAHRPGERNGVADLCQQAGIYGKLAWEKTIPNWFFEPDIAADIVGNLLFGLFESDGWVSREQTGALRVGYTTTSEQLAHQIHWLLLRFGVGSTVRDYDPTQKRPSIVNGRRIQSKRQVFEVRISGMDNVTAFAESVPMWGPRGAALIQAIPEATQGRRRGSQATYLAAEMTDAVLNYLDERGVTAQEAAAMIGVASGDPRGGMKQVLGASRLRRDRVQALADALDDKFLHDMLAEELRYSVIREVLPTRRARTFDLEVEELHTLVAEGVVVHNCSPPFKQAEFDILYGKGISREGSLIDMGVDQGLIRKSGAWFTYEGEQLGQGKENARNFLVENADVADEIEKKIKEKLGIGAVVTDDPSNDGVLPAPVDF

Protein RecA [13] = target: T5, Protein RecA; test: RecA Intein Measured in Biochemical System Using Plate Reader - 2047-02_Inhibitor_Dose_DryPowder_Activity. [Related pubchem assays (depositor defined):AID2223]; design: species or system Mycobacterium tuberculosis H37Rv
[14] = THP-1 cell cytotoxicity, dose response, cytotoxicity control for non-replicating M. tuberculosis project (AID 489025); type: functional
[15] = target: T4, Replicative DNA helicase DnaB; test: DnaB Intein secondary assay Measured in Biochemical System Using Plate Reader - 2047-04_Inhibitor_Dose_DryPowder_Activity. [Related pubchem assays (depositor defined):AID2223]
Nonstructural protein 1 = Nonstructural protein 1 (Influenza A virus, UniProt Q194T2); type: functional, Influenza A virus (A/California/07/2009(H1N1))
Chain of Nonstructural protein 1 (Q194T2 whole entry): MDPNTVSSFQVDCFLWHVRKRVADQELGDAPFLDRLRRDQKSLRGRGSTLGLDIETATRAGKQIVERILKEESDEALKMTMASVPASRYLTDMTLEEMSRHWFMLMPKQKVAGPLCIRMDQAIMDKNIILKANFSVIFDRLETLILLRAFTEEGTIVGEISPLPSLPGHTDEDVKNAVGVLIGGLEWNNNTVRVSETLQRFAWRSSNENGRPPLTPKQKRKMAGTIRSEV

[16] = Intein inhibitors as potential Tuberculosis drugs, a cytotoxicity screen. [Related pubchem assays (depositor defined):AID2221, AID2223, AID434968, AID435010, AID449749, AID449750, AID489010]; type: functional
Protein RecA [17] = target: T5, Protein RecA; test: GFP-RecA MOA-DTT Measured in Biochemical System Using Plate Reader - 2047-05_Inhibitor_Dose_DryPowder_Activity. [Related pubchem assays (depositor defined):AID2223]; design: species or system Mycobacterium tuberculosis H37Rv
[18] = target: T6, Alkaline phosphatase, tissue-nonspecific isozyme (Homo sapiens, UniProt P05186); test: activation of tissue-nonspecific alkaline phosphatase – biochemical, TNAP isozyme, mouse IAP uHTS hits, selectivity assay for mouse IAP activator project, dose response (AID 488880); type: functional
T6 sequence (P05186 whole entry): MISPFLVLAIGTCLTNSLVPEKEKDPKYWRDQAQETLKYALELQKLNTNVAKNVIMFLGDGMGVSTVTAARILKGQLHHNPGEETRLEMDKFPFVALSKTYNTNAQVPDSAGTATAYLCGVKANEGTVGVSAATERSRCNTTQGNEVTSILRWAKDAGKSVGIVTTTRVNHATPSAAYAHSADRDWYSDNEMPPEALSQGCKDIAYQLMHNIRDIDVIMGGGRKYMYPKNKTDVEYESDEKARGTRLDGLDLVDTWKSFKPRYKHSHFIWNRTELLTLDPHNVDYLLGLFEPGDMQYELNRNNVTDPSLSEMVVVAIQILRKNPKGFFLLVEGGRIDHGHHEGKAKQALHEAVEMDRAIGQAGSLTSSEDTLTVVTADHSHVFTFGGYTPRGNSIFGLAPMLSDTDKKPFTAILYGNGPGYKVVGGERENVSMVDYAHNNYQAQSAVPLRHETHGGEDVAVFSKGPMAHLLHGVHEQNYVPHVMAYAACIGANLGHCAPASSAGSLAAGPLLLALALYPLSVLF

[19] = target: Intestinal-type alkaline phosphatase (Homo sapiens, UniProt P09923); test: activation of human intestinal alkaline phosphatase – biochemical, dose response (AID 488873); type: functional
Chain of Intestinal-type alkaline phosphatase (Homo sapiens, UniProt P09923) (P09923 whole entry): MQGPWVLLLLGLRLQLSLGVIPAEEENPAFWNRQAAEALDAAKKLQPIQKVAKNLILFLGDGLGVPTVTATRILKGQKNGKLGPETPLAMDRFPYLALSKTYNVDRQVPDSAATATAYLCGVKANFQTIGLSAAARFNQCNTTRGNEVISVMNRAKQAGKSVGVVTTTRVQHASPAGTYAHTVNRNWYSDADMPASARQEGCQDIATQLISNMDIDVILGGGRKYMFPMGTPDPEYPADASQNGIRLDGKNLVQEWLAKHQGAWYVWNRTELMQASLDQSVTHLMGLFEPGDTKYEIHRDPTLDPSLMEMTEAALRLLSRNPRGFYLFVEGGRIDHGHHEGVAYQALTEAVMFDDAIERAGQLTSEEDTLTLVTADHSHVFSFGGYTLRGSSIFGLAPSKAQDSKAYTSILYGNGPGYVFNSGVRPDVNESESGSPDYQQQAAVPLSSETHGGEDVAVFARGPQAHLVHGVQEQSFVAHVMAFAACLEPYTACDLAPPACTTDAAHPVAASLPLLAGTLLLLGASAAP

[20] = target: Intestinal-type alkaline phosphatase (Mus musculus, UniProt P24822); test: mouse intestinal alkaline phosphatase activators, dose response, biochemical, luminescence, uHTS hits (AID 488783); type: functional
Chain of Intestinal-type alkaline phosphatase (Mus musculus, UniProt P24822) (P24822 whole entry): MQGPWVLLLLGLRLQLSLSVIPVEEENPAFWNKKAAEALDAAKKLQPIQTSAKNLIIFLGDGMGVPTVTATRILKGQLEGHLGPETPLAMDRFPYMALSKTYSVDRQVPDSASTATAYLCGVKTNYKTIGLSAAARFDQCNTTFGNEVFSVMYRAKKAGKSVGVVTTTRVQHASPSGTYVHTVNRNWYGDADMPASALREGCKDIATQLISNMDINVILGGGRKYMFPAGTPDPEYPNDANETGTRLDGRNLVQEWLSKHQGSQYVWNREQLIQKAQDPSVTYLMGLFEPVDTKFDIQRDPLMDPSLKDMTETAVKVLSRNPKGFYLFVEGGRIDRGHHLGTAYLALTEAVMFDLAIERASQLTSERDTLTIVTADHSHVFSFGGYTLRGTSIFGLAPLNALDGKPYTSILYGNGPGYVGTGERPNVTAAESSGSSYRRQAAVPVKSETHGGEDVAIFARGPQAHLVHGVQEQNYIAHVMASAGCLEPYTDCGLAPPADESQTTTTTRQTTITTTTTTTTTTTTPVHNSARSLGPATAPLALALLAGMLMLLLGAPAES

SUMO-activating enzyme [21] = target: T7, SUMO-activating enzyme (Homo sapiens, UniProt Q9UBT2); test: blockers of UBC9-mediated SUMO conjugation – biochemical, AlphaScreen, SUMOylation inhibitor project, confirmation (AID 2018); type: functional
T7 sequence (Q9UBE0 whole entry): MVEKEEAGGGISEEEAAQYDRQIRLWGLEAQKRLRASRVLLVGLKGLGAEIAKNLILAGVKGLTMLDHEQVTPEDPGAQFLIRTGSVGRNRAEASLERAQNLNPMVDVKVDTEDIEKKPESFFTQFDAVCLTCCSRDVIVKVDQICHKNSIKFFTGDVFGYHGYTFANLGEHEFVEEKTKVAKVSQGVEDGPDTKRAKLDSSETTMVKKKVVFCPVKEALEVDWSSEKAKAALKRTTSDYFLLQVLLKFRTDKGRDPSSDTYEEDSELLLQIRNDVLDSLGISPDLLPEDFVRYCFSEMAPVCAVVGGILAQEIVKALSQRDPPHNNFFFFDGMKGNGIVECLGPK
T7 sequence (Q9UBT2 whole entry): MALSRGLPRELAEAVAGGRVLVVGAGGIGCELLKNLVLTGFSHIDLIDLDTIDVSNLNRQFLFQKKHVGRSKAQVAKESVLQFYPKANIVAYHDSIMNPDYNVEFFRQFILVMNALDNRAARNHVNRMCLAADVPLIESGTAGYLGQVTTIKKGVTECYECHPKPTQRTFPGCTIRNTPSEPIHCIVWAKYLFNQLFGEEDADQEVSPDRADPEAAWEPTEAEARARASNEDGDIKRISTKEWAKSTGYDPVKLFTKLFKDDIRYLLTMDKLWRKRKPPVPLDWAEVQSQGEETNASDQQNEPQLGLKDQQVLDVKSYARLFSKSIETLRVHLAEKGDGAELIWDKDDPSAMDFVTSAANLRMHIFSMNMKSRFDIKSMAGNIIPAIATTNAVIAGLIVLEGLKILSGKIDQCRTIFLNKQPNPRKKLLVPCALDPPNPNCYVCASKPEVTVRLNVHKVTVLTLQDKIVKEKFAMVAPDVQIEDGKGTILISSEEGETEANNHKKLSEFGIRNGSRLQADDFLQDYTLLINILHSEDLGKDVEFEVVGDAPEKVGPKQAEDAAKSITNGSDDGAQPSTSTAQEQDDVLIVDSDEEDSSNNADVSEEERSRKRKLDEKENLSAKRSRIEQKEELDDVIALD

Large T antigen = Large T antigen (Simian virus 40, UniProt P03070); type: functional, Betapolyomavirus macacae;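 note: Confirmatory-stage PubChem screen for compounds that inhibit SV40 T antigen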
Chain of Large T antigen (P03070 whole entry): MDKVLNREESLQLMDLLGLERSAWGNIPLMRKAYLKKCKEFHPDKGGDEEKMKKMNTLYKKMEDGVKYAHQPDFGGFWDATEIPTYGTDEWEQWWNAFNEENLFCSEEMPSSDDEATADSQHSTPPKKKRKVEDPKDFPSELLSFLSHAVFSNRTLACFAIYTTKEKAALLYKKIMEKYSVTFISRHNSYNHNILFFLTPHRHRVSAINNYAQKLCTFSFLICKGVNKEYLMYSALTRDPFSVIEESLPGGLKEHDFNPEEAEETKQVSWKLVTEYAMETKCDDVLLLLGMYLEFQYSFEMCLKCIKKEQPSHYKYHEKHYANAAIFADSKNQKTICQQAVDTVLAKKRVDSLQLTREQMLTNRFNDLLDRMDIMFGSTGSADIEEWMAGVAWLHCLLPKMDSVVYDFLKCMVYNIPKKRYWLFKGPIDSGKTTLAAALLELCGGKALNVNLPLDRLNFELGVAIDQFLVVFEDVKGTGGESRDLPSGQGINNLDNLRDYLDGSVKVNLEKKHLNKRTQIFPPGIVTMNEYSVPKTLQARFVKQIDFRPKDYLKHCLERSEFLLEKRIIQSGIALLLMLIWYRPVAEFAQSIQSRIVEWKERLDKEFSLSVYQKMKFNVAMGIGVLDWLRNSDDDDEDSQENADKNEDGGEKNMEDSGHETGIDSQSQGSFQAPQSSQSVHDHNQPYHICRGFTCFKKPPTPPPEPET

SUMO-activating enzyme [22] = target: T7, SUMO-activating enzyme; test: blockers of SAE1/SAE2–UBC9 SUMO transfer – biochemical, HTRF, uHTS, primary screen (AID 2006); type: protein-complex assay

## COc1cc(/C=C(\C#N)c2ccc(F)cc2)ccc1OCc1ccc(C(=O)O)cc1
[1]
  IC50: 59.2 µM (active)
[2]
  IC50: 35.5 µM (active)
[3]
  IC50: 94.2 µM (active)
[4]
  IC50: 61.2 µM (active)
[5]
  IC50: 7.01 µM (active)
[6]
  IC50: 22.1 µM (active)
[7]
  IC50: 33.9 µM (active)
[8]
  IC50: > 100 µM (inactive)

## Cc1ccccc1-n1ncc2c([N+](=O)[O-])cc([N+](=O)[O-])cc21
[9]
  AC50: 8.7 µM (active)
[10]
  AC50: 3.15 µM (active)
cells
  IC50: 0.95 µM (active)
[11]
  CC50: > 20 µM (active)
Protein RecA [12]
  EC50: 0.911 µM (active)
Protein RecA [13]
  AC50: 2.19 µM (active)
[14]
  CC50: > 40 µM (active)
[15]
  AC50: 5.7 µM (active)
Nonstructural protein 1
  IC50: 31.1 µM (active)
[16]
  CC50: 30.8 µM (active)
Protein RecA [17]
  AC50: 232 µM (active)

## O=C(CCN1C(=O)/C(=C/c2ccco2)SC1=S)Nc1ccc(C(=O)O)c(O)c1
[18]
  EC50: 84.9 µM (active)
[19]
  EC50: 66.2 µM (active)
[20]
  EC50: 7.32 µM (active)
SUMO-activating enzyme [21]
  IC50: 1.46 µM (active)
Large T antigen
  IC50: 56.1 µM (active)
SUMO-activating enzyme [22]
  IC50: 14.3 µM (active)
